The melting point is the temperature of the solid-liquid transition. `Cc1oc(-c2ccccc2)nc1COc1ccc(S(=O)(=O)Nc2cccc(Cl)c2C(=O)O)cc1` [Compd 4-1, 6-Chloro-2-[4-(5-methyl-2-phenyl-oxazol-4-ylmethoxy)-benzenesulfonylamino]-benzoic acid]: the melting point was 170 to 172 °C.

`Cc1oc(-c2ccccc2)nc1COc1ccc(S(=O)(=O)Nc2cc(-c3ccccc3)ccc2C(=O)O)cc1` [Compd 4-2, 3-[4-(5-Methyl-2-phenyl-oxazol-4-ylmethoxy)-benzenesulfonylamino]-biphenyl-4-carboxylic acid] had a melting point of 75 to 77 °C.

`Cc1oc(-c2ccc(C(F)(F)F)cc2)nc1COc1ccc(S(=O)(=O)Nc2cc(Cl)ccc2C(=O)O)cc1` [Compd 4-3, 4-Chloro-2-{4-[5-methyl-2-(4-trifluoromethyl-phenyl)-oxazol-4-ylmethoxy]-benzene-sulfonylamino}benzoic acid] showed a melting point of 191 to 193 °C.

The molecule `Cc1oc(-c2ccccc2)nc1COc1ccc(S(=O)(=O)Nc2cccc(F)c2C(=O)O)cc1` [Compd 4-4, 6-Fluoro-2-[4-(5-methyl-2-phenyl-oxazol-4-ylmethoxy)-benzenesulfonylamino]-benzoic acid] came in with a melting point of 203 to 205 °C.

`Cc1oc(-c2ccc(F)cc2)nc1COc1ccc(S(=O)(=O)Nc2cc(Cl)ccc2C(=O)O)cc1` [Compd 4-5, 4-Chloro-2-{4-[2-(4-fluoro-phenyl)-5-methyl-oxazol-4-ylmethoxy]-benzenesulfonylamino}-benzoic acid] yielded a melting point of 223 to 225 °C.

On to `Cc1oc(-c2ccccc2)nc1COc1ccc(S(=O)(=O)Nc2cccc(C(F)(F)F)c2C(=O)O)cc1` [Compd 4-6, 2-[4-(5-Methyl-2-phenyl-oxazol-4-ylmethoxy)-benzenesulfonylamino]-6-trifluoromethyl-benzoic acid], for which the melting point was 197 to 198 °C.

`Cc1oc(-c2ccccc2)nc1COc1ccc(S(=O)(=O)Nc2cc(Cl)ccc2C(=O)O)cc1` [Compd 4-7, 4-Chloro-2-[4-(5-methyl-2-phenyl-oxazol-4-ylmethoxy)-benzenesulfonylamino]-benzoic acid] gave a melting point of 98 to 100 °C.

Consider `Cc1oc(-c2ccc(C(F)(F)F)cc2)nc1COc1ccc(S(=O)(=O)Nc2ccccc2C(=O)O)cc1` [Compd 4-8, 2-{4-[5-Methyl-2-(4-trifluoromethyl-phenyl)-oxazol-4-ylmethoxy]-benzenesulfonylamino}-benzoic acid], for which the melting point worked out at 195 °C.

Take `Cc1oc(-c2ccccc2)nc1COc1ccc(S(=O)(=O)Nc2cc(F)ccc2C(=O)O)cc1` [Compd 4-10, 4-Fluoro-2-[4-(5-methyl-2-phenyl-oxazol-4-ylmethoxy)-benzenesulfonylamino]-benzoic acid]: the melting point was in the range of 212 to 214 °C.

In turn, `Cc1oc(-c2ccccc2)nc1COc1ccc(S(=O)(=O)Nc2ccccc2C(=O)O)cc1` [Compd 4-11, 2-[4-(5-Methyl-2-phenyl-oxazol-4-ylmethoxy)-benzenesulfonylamino]-benzoic acid] returned a melting point of 195 to 198 °C.

On to `Cc1ccc(C(=O)O)c(NS(=O)(=O)c2ccc(OCc3nc(-c4ccccc4)oc3C)cc2)c1` [Compd 4-12, 4-Methyl-2-[4-(5-methyl-2-phenyl-oxazol-4-ylmethoxy)-benzenesulfonylamino]-benzoic acid], for which the melting point is 207 to 208 °C.

Molecule `Cc1oc(-c2ccccc2)nc1COc1ccc(S(=O)(=O)Nc2ccc(F)cc2C(=O)O)cc1` [Compd 4-14, 5-Fluoro-2-[4-(5-methyl-2-phenyl-oxazol-4-ylmethoxy)-benzenesulfonylamino]-benzoic acid] registered a melting point of 213 to 215 °C.

Consider `Cc1oc(-c2ccccc2)nc1COc1ccc(S(=O)(=O)Nc2ccc(Cl)cc2C(=O)O)cc1` [Compd 4-15, 5-Chloro-2-[4-(5-methyl-2-phenyl-oxazol-4-ylmethoxy)-benzenesulfonylamino]-benzoic acid], for which the melting point is 207 to 208 °C.

`COc1ccc(NS(=O)(=O)c2ccc(OCc3nc(-c4ccccc4)oc3C)cc2)c(C(=O)O)c1` [Compd 4-16, 5-Methoxy-2-[4-(5-methyl-2-phenyl-oxazol-4-ylmethoxy)-benzenesulfonylamino]-benzoic acid]: the melting point lay in the range of 190 to 194 °C.

The molecule `Cc1ccc(NS(=O)(=O)c2ccc(OCc3nc(-c4ccccc4)oc3C)cc2)c(C(=O)O)c1` [Compd 4-17, 5-Methyl-2-[4-(5-methyl-2-phenyl-oxazol-4-ylmethoxy)-benzenesulfonylamino]-benzoic acid] showed a melting point of 185 to 187 °C.

In turn, `CC(=O)Nc1ccc(NS(=O)(=O)c2ccc(OCc3nc(-c4ccccc4)oc3C)cc2)c(C(=O)O)c1` [Compd 4-18, 5-Acetylamino-2-[4-(5-methyl-2-phenyl-oxazol-4-ylmethoxy)-benzenesulfonylamino]-benzoic acid] showed a melting point of 89 to 90 °C.

In turn, `Cc1oc(-c2ccccc2)nc1CCOc1ccc(S(=O)(=O)Nc2cc(-c3ccccc3)ccc2C(=O)O)cc1` [Compd 4-19, 3-{4-[2-(5-Methyl-2-phenyl-oxazol-4-yl)-ethoxy]-benzenesulfonylamino}-biphenyl-4-carboxylic acid] yielded a melting point of 177 to 179 °C.

As to `COc1ccc(NS(=O)(=O)c2ccc(OCCc3nc(-c4ccccc4)oc3C)cc2)c(C(=O)O)c1OC` [Compd 4-20, 2,3-Dimethoxy-6-{4-[2-(5-methyl-2-phenyl-oxazol-4-yl)-ethoxy]-benzenesulfonyl-amino}benzoic acid], the melting point was 59 to 60 °C.

On to `Cc1oc(-c2ccccc2)nc1CCOc1ccc(S(=O)(=O)Nc2ccccc2C(=O)O)cc1` [Compd 4-21, 2-{4-[2-(5-Methyl-2-phenyl-oxazol-4-yl)-ethoxy]-benzenesulfonylamino}-benzoic acid], for which the melting point was in the range of 136 to 138 °C.

Molecule `COc1cc(NS(=O)(=O)c2ccc(OCc3nc(-c4ccccc4)oc3C)cc2)c(C(=O)O)cc1OC` [Compd 4-24, 4,5-Dimethoxy-2-[4-(5-methyl-2-phenyl-oxazol-4-ylmethoxy)-benzenesulfonylamino]-benzoic acid] registered a melting point of 206 to 207 °C.

On to `Cc1cc(C)c(NS(=O)(=O)c2ccc(OCc3nc(-c4ccccc4)oc3C)cc2)c(C(=O)O)c1` [Compd 4-25, 3,5-Dimethyl-2-[4-(5-methyl-2-phenyl-oxazol-4-ylmethoxy)-benzenesulfonylamino]-benzoic acid], for which the melting point was 165 to 166 °C.

`Cc1oc(-c2ccccc2)nc1COc1ccc(S(=O)(=O)Nc2cc3ccccc3cc2C(=O)O)cc1` [Compd 4-26, 3-[4-(5-Methyl-2-phenyl-oxazol-4-ylmethoxy)-benzenesulfonylamino]-naphthalene-2-carboxylic acid] gave a melting point of 234 to 236 °C.

With `O=C(NCc1ccc(C(F)(F)F)cc1)c1ccc(S(=O)(=O)Nc2ccccc2C(=O)O)cc1` [Compd 6-1, 2-[4-(4-Trifluoromethyl-benzylcarbamoyl)-benzenesulfonylamino]-benzoic acid], the melting point was 330 to 335 °C.

As for `COc1cc(OC)c(C(=O)O)c(OCc2ccc(OCCc3nc(-c4ccccc4)oc3C)cc2)c1` [Compd 21-1, 2,4-Dimethoxy-6-{4-[2-(5-methyl-2-phenyl-oxazol-4-yl)-ethoxy]-benzyloxy}-benzoic acid], the melting point was in the range of 58 to 60 °C.

For the origin of these results see patent US7700637B2, “Organic compounds” (Novartis AG, priority 2003, dated 2010).
